For assay [1], the system named is U937 cells (fibronectin receptor) adhering to fibronectin-coated wells.
Assay [2] concerns Jurkat T-cells adhering to IL-1 stimulated human umbilical vein endothelial cell monolayers. Kind of assay: Jurkat-endothelial cell adhesion assay (Cell Adhesion Inhibition Assay II). It is filed as cell-based. Particulars: for 10 μM% (percentage inhibition at 10 μM): 10 μM peptide; for 10 μM% (percentage inhibition at 10 μM) / 200 μM% (percentage inhibition at 200 μM): Jurkat cells on IL-1 stimulated endothelial monolayers, 20 min at 37° C.; for 200 μM% (percentage inhibition at 200 μM): 200 μM peptide. As to the method: The following assay established the activity of the present compound in inhibiting cell-cell adhesion in a representative in vitro system. This assay measures the adhesive interactions of T-cells to endothelial cell monolayers in the presence of a test compound. The test compound is added in increasing concentrations with T-cells and this is added to endothelial cell monolayers. The plates are incubated, washed and the percentage of attached cells is quantitated.
Human umbilical vein endothelial cells were purchased from Clonetics (San Diego, Calif.) at passage number 2. The cells were grown on 0.5% porcine skin gelatin pre-coated flasks (Sigma, St. Louis, Mo.) in EGM-UV media (Clonetics, San Diego, Calif.) supplemented with 10% fetal bovine serum. Cells were refed every 2-3 days reaching confluence by day 4 to 6. […] The endothelial cells were not used following passage 14-15.
The T-cell line Jurkat was obtained from American Type Tissue Culture Collection (Rockville, Md.). The cells were cultured in RPMI media containing 10% fetal calf serum. The cells were washed twice with Hank's Balanced Salt Solution (HBSS) and resuspended in Dulbecco's […] Eagle's Media (DMEM) containing 2.5 mg/ml Human Serum Albumin (HSA). The Jurkat cells (1×10^6 cells/ml) were stained with 10 μg/ml fluorescein diacetate (Sigma, St. Louis, Mo.) in HSSS containing 5% fetal calf serum. The cells were stained for 15 minutes in the dark at room temperature, washed 2 times, and resuspended in a DMEM-HSA solution.
Confluent endothelial monolayers grown in 96-well tissue culture plates were stimulated for 4 hours at 37° C. with 0.1 ng/ml (^~ 50 U/ml) recombinant IL-1 (Amgen, Thousand Oaks, Calif.). Following this incubation, the monolayers were washed twice with HBSS and 0.1 ml of DMEM-HSA solution was added. Jurkat cells (5×10^5 cells) were combined with appropriate concentrations of a peptide to be tested and 0.1 ml of the Jurkat-peptide mixture were added to the endothelial cell monolayers. Generally, 200 and 10 μM peptide concentrations were tested. […] The plates were placed on ice for 5 minutes to allow for Jurkat cell settling and then incubated at 37° C. for 20 minutes. Following this incubation, the monolayers were washed twice with PBS containing 1 mM calcium chloride and 1 mM magnesium chloride and the plates were read using a Pandex Fluorescence Concentration Analyzer (Baxter, Mundelein, Ill.). Fluorescence in each well was measured as arbitrary fluorescence units and percent adhesion in the absence of a peptide was adjusted to 100% and the percentage adhesion in the presence of the peptide was calculated. Monolayers were also fixed in 3% paraformaldehyde and evaluated microscopically to verify adhesion.

Setting [3] is: read-out: IC50 μM, U937 cells on fibronectin-coated wells, 60 min at 37° C., concentration at which adhesion is inhibited to 50% of control.

Here are results for eleven compounds from patent US5721210A, “Cyclic cell adhesion modulation compounds” (priority 1995, dated 1998).

Where two headings read alike, the source gives them in different places. Bridge positions count the residues as written; N and C are the ends. Square brackets hold non-standard residues; d marks the D form. Peptide text beside a SMILES is read from it. * marks the point of attachment. Acetyl(1-adamantyl) = O=C(CC12CC3CC(CC(C3)C1)C2)*; 2Thi = N[C@@H](Cc1cccs1)C(=O)O; 4Amb = NCc1ccc(C(=O)O)cc1

In the case of `N=C(N)NCCC[C@@H]1NC(=O)c2ccc(cc2)CNC(=O)[C@H](CC(=O)O)NC(=O)CNC1=O` (cyclo(RGD[4Amb])), the IC50 in assay [1] stood at 251 µM.

For `N=C(N)NCCC[C@@H]1NC(=O)CNC(=O)C[C@@H](C(N)=O)NC(=O)[C@@H]2CCCN2C(=O)[C@H](CO)NC(=O)[C@H](CC(=O)O)NC(=O)CNC1=O` [Peptide 22, G*RGDSPD*-NH2] (GRGDSPD-NH2; lactam N-7), in assay [1] (setting [3]), the IC50 is 112 µM.

Consider `N=C(N)NCCC[C@@H]1NC(=O)CNC(=O)C[C@@H](C(N)=O)NC(=O)[C@@H]2CCCN2C(=O)[C@H](CO)NC(=O)[C@H](CC(=O)O)NC(=O)CNC1=O` [Peptide 47, G*RGDSPD*-NH2] (GRGDSPD-NH2; lactam N-7), for which the IC50 in assay [1] (setting [3]) stood at 134 µM.

Turning to `N=C(N)NCCC[C@@H]1NC(=O)[C@@H](N)CSSC[C@@H](C(=O)O)NC(=O)[C@H](Cc2cccs2)NC(=O)[C@H](CC(=O)O)NC(=O)CNC1=O` [Peptide 70, C*RGD(TA)C*] (H-CRGD[2Thi]C-OH; disulfide 1-6), in assay [1] (setting [3]), the IC50 came to 190 µM.

Consider `COc1ccc(C[C@@H]2NC(=O)[C@H](CC(=O)O)NC(=O)CNC(=O)[C@H](CCCNC(=N)N)NC(=O)[C@@H](NC(=O)CNC(=O)CNC(=O)CC34CC5CC(CC(C5)C3)C4)CSSC[C@@H](C(N)=O)NC(=O)[C@@H]3CCCN3C2=O)cc1` [Peptide 96, (Ada)-GGC*RGDY(p-OCH3 -Tyr)PC*-NH2] ({Acetyl(1-adamantyl)}-GGCRGDY(Me)PC-NH2; disulfide 3-9), for which, in assay [1] (setting [3]), the IC50 was 9 µM.

As to `N=C(N)NCCC[C@H](N)C(=O)N[C@H]1CSSC[C@@H](C(=O)O)NC(=O)[C@H](Cc2cccs2)NC(=O)[C@H](CC(=O)O)NC1=O` [Peptide 101, RC*D(TA)C*] (H-RCD[2Thi]C-OH; disulfide 2-5), the IC50 in assay [1] (setting [3]) was 258 µM.

For the compound (1-FCA)RC*D(TTC)C* [Peptide 132], the IC50 in assay [1] (setting [3]) was 92 µM.

(CPA)-RC*D-(3-thioPro)C* [Peptide 110]: the IC50 in assay [1] (setting [3]) is 8 µM.

For the compound (FMOC)-RC*(DTC)C* [Peptide 156], in assay [2], the “10 μM% (percentage inhibition at 10 μM)” value stood at 90% and the “200 μM% (percentage inhibition at 200 μM)” value was determined as 32%.

Consider (FMOC)-RC*D(TTC)C* [Peptide 166], for which, in assay [2], the “10 μM% (percentage inhibition at 10 μM)” value is 18% and the “200 μM% (percentage inhibition at 200 μM)” value was determined as 11%. The compound also registered an IC50 in assay [2] (Jurkat-endothelial cell adhesion, peptides tested at 200, 40, 8, 1.6, 0.32, 0.064 μM) of 900 nM.

Turning to RC*D(TTC)C* [Peptide 122], the IC50 in assay [1] (setting [3]) was 6 µM.

What is called IC50 is the concentration that inhibits the measured activity by half.
